In EP0167245B1, “Anti-arrhythmic agents” (AMERICAN HOME PRODUCTS CORPORATION, priority 1984, dated 1986):

Test system: rabbit aortic smooth muscle
Assay: Ca+2 antagonism: relaxation of KCl-depolarised rabbit thoracic aorta strips
Assay type: cell-based
Details: 20 min, 100 mM KCl contracted aortic strips; for inhibition at 10 µM: Oryctolagus cuniculus, test compound 1 x 10^-5 M, 20 min after addition, mean of two experiments, read-out: percent relaxation (P. R.)
Description: Here, transverse strips (10 mm x 2.5 mm) from the thoracic aorta were cut and suspended vertically in a jacketed (37 °C - 50 ml volume) organ bath in physiological saline solution (PSS) aerated with 95 % Oz/5 % CO9. The composition of PSS was as follows (mM) : NaCI 112, KCI 5, NaHC03 25, KH2PO4 1, MgS04 1.2, CaCI2 2.5, dextrose 10. The lower end of each tissue strip was attached to a fixed post and the upper end to a Statham UC-4 transducer. Changes in force development were recorded on a Beckman Dynograph Polygraphic Recorder.
Following equilibration, the muscles were contracted in a depolarizing solution of PSS in which 100 mM KCI was substituted for an equimolar concentration of NaCI. Following attainment of steady-state isometric force (20 min.), the test compound was added to afford a final concentration of 1 x 10-^5 M. The inhibitory effect, expressed as percent relaxation, was determined from the mean of two experiments twenty minutes after the addition of the compound being tested.
The following examples illustrate the preparation of a representative number of compounds of this invention. After each example, the Ca^2+ antagonist activity of the compound is presented in terms of percent relaxation (P. R.) at 10-^5 M concentration unless indicated otherwise. Similarly, the percentage mortality of standard experimental test animals upon coronary ligation (C. L.) is presented for comparison with the control mortality rate of 73 percent of animals receiving vehicle alone.

Row | Compound | inhibition at 10 µM [%] | percent relaxation (P. R.) (test compound at 10-^s M as printed)
1 | COc1ccc(CCN(C)CCCN(C(C)C)S(=O)(=O)c2ccc(OC)c(OC)c2OC)cc1OC [Example 15, N-[3-[[2-(3,4-dimethoxyphenyl)ethyl]methylamino]propyl]-N-(1-methylethyl)-2.3,4-trimethoxybenzenesul-phonamide] | 80 | –
2 | COc1ccc(CCN(C)CCCS(=O)(=O)N(c2cc(OC)c(OC)c(OC)c2)C(C)C)cc1OC [Example 3, 3-[[2-(3,4-Dimethoxyphenyl)ethyl]methylamino]-N-(1-methylethyl)-N-(3,4,5-trimethoxyphenyl)-1-prop-anesulphonamide] | 62 | –
3 | COc1ccc(CCN(C)CCCS(=O)(=O)Nc2cccc(C(F)(F)F)c2)cc1OC [Example 5, N-(3-Trifluoromethylphenyl)-3-[[2-(3,4-dimethoxyphenyl)-ethyl)methylamino]-1-propanesulphonamide] | 51 | –
4 | COc1ccc(CCN(C)CCCN(C(C)C)S(=O)(=O)c2cccc(C(F)(F)F)c2)cc1OC [Example 7, N-[3-[[2-(3,4-Dimethoxyphenyl)ethyl]methylamino]propyl]-N-(1-methylethyl)-3-(trifluoromethyl) benzenesulphonamide] | 86.6 | –
5 | COc1ccc(CCN(C)CCCCN(C(C)C)S(=O)(=O)c2ccc(Cl)c(Cl)c2)cc1OC [Example 14, 3,4-Dichloro-N-(4-[[2-(3,4-dimethoxyphenyl)ethyl]methylamino]butyl]-N-(1-methylethyl) benzenesulphonamide] | 68 | –
6 | COc1ccc(CCN(C)CCCS(=O)(=O)N(c2ccc(OC)c(OC)c2)C(C)C)cc1OC [Example 2, N-(3,4-Dimethoxyphenyl)-3-[[2-(3,4-dimethoxyphenyl)ethyl]methylaminol]-N-(1-methylethyl)-1-prop-anesulphonamide] | 74 | –
7 | COc1cc(OC)cc(N(C(C)C)S(=O)(=O)CCCN(C)CCc2ccc(OC)c(OC)c2)c1 [Example 1, N-(3,5-Dimethoxyphenyl)-3-[(2-(3,4-dimethoxyphenyl)ethyl]-methylamino]-N-(1-methylethyl)-1-prop-anesulphonamide] | 90 | 27
8 | COc1ccc(CCN(C)CCCS(=O)(=O)N(c2cc(Cl)cc(Cl)c2)C(C)C)cc1OC [Example 4, N-(3,5-Dichlorophenyl)-3-[[2-(3,4-dimethoxyphenyl)ethyl]methylamino]-N-(1-methylethyl)-1-propanesulp-honamide] | 86 | –
9 | COc1ccc(CCN(C)CCCS(=O)(=O)N(c2cccc(C(F)(F)F)c2)C(C)C)cc1OC [Example 6, N-(3-Trifluoromethylphenyl)-3-[[2-(3,4-dimethoxyphenyl)ethyl]methylamino]-N-(1-methylethyl)-1-prop-anesulphonamide] | 78.5 | –
